Values after ≈ are worked out from the molar mass of the structure shown. Like-named read-outs stand apart in the source and are kept apart here. Marks after values point to notes of the source that are not given here.
Columns and labels:
[1] = system: intestinal epithelial cell line (RT-GUT); test: cells; conditions: for toxicity (in words) / IC50 (cellular): RT-GUT; for toxicity (in words): 512 to 2 μg/mL; for IC50 (cellular): 24 h at 16 °C, n = 6
Method: (§1) Since F. psychrophilum is a bacterial pathogen that affects a wide variety of salmonids, we evaluated the toxicity of the [Cu(NN1)2]ClO4 complex in three different cell lines, Chinook salmon embryo (CHSE-214), Salmon Head Kidney-1 (SHK-1) and intestinal epithelial cell line (RT-GUT). For this experiment 1 × 10^5 cells were treated with the different compounds (coumarin, Cu(I) salt and copper (I) complex) in a range of concentrations between 512 μg/mL and 2 μg/mL, incubated at 16 °C for 24 h.
(§2) 1 × 10^5 Cells were seeded and incubated at 16 °C for 24 h. Later, the cells were treated with compounds in concentrations from 512 μg/mL to 2 μg/mL solubilized in dimethyl sulfoxide (DMSO, Merck, Darmstadt, Germany) and incubated at 16 °C for 24 h. Subsequently, the cells were collected, pelleted and resuspended in IF buffer (1X buffer and 2% fetal bovine serum) and 1 µL propidium iodide (PI, 1 mg/mL) was added. The cellular viability (negative to PI) was analyzed by flow cytometer using FACSCanto II Cytometer (BD biosciences, University of Santiago of Chile, Santiago, RM, Chile). For positive control, cells were incubated without compounds; for death control, cells were incubated with 50% ethanol; medium control cells were treated with medium containing 1% of DMSO. To calculate the IC50 of compounds in the cell lines, they were analyzed using GraphPad Prism program 5.0 (GraphPad Software, San Diego, CA, USA), the concentrations were transformed into log (10) and the number of events normalized in percentage, for the calculation of IC50 a nonlinear regression was performed.

[2] = system: Chinook salmon embryo (CHSE-214) cells; test: cells; conditions: for toxicity (in words): CHSE-214, 512 to 2 μg/mL, 24 h; for IC50 (cellular): CHSE-214, 24 h at 16 °C, n = 6
Method: as §1, §2

[3] = system: Salmon Head Kidney-1 (SHK-1) cells; test: cells; conditions: for toxicity (in words): SHK-1, 512 to 2 μg/mL; for IC50 (cellular): SHK-1, 24 h at 16 °C, n = 6
Method: as §1, §2

[4] = system: Flavobacterium psychrophilum 10094; test: Antibacterial test (microdilution: MIC, MBC, IC50); assay type: cell-based; conditions: for MBC / MIC: n = 3; for MIC: F. psychrophilum 10094, 72 h post-incubation, visual; for Amount Cu in MBC / Amount Cu in MIC / Amount Total in IC50 / Amount Total in MBC / Amount Total in MIC: F. psychrophilum; for Amount Cu in MBC / Amount Cu in MIC: amount of copper contained; for Amount Total in IC50 / Amount Total in MBC / Amount Total in MIC: total compound
Method: A bacterial strain of Flavobacterium psychrophilum (ETECMA) originally isolated from Salmon Coho (Oncorhynchus kisutch) in 2008 in Chiloe, Chile, was used for antibacterial test. […] The strain was cultivated in TYES broth (pH = 7.2) at 15 °C for 48 h with stirring at 180 rpm.
To determine MIC, MBC and IC50 of complex and its precursors, microdilution method was performed with some modifications. F. psychrophilum 10094 (0.4 OD600 nm = 1 × 10^8 CFU/mL, approximately) was inoculated in TYES broth pH 7.2 to 1% cell suspension in 96-well plates (Falcon) and treated with complex and its precursors in serial concentrations between 512 μg/mL to 2 μg/mL and incubated for 72 h at 15 °C with agitation at 180 rpm. The MIC was determined as the lowest compounds concentrations which inhibited bacterial grow by visual comparison with the negative control (TYES broth). […] The MBC was determined as the minimum concentration of the compounds at which the bacterial colony count was diminish to 99.9%. For determination of the half-maximal inhibitory concentration (IC50) of compounds on F. psychrophilum, the OD600 nm of each wells was measured using Nanoquant Infinite M200 Pro (TECAN, Grödig, Austria). For the correct calculation of the OD of each concentration of each compound, wells with TYES medium were used with each concentration without inoculating with F. psychrophilum, this control OD was subtracted obtaining the final OD. Data were analyzed using the GraphPad Prism program 5.0.

[5] = Stability in solution by UV-Vis spectra; assay type: physicochemical; conditions: 72 h after the solution was prepared, CHCl3, air-exposed, room temperature
Method: The spectral region below 400 nm in complex correspond at π to π* intraligand transition bands, which are similar profile of free ligand, but undergo a red-shift upon complexation to copper(I) in around 20 nm.
All the chemicals were purchased commercially and used without further purification. ^1H, ^13C NMR and 2D spectra were recorded on a Bruker Avance Neo 400 MHz spectrometer (400.133 MHz for ^1H, 40.559 MHz for ^15N and 100.613 MHz for ^13C, (University of Santiago of Chile, Santiago, RM, Chile) equipped with a 5 mm multinuclear broad-band dual probehead, incorporating a z-gradient coil. All the measurement was done in CDCl3 at 300 K. Chemical shifts (in ppm) for ^1H and ^13C were calibrated respect to the residual protonated signal of the solvent (7.26 and 77 ppm respectively) and reported relative to Me4Si. The ^15N signal in ^1H ^15N HMBC were calibrated relative to CH3NO2 (90%) in CDCl3). The following abbreviations were used to explain the multiplicities: s = singlet, d = doublet, m = multiplet. […] Electrochemical behavior was studied by cyclic voltammetry using a potentiostat CHI 620E by CH instrument equipment supplied with the electrochemical analyzer CHI software (University of Santiago of Chile, Santiago, RM, Chile). […]

[6] = Cyclic voltammetry, Cu(II)/Cu(I) oxidation potential; assay type: physicochemical; conditions: vs Ag/AgCl, CH2Cl2, 0.1 M TBAP, quasireversible, ΔE = 114 mV
Method: Voltammetry studies were also performed in order to determine the effect of new NN1 ligand on the Cu(II)/Cu(I) oxidation potential considering the well-known fact of high influence of ligands on the metal-centered HOMO energy. Consequently, measurements were registered at room temperature in −1.10 to +1.30 V vs Ag/AgCl potential range.
All the chemicals were purchased commercially and used without further purification. ^1H, ^13C NMR and 2D spectra were recorded on a Bruker Avance Neo 400 MHz spectrometer (400.133 MHz for ^1H, 40.559 MHz for ^15N and 100.613 MHz for ^13C, (University of Santiago of Chile, Santiago, RM, Chile) equipped with a 5 mm multinuclear broad-band dual probehead, incorporating a z-gradient coil. All the measurement was done in CDCl3 at 300 K. Chemical shifts (in ppm) for ^1H and ^13C were calibrated respect to the residual protonated signal of the solvent (7.26 and 77 ppm respectively) and reported relative to Me4Si. The ^15N signal in ^1H ^15N HMBC were calibrated relative to CH3NO2 (90%) in CDCl3). […] Electronic spectra were recorded on a PerkinElmer UV-VIS Lambda 25 spectrophotometer (University of Santiago of Chile, Santiago, RM, Chile) at room temperature, wavelength range between 200 and 1100 nm from 1.5 × 10^−5 mol/L solutions in dichloromethane to NN1 and [Cu(NN1)2]ClO4. […]

[7] = set-up: method as in PMID 30177987; conditions: versus Ag/AgCl in CH2Cl2 ref 18; cited from earlier work
[8] = F. psychrophilum 10094, colony count diminished to 99.9%
[9] = F. psychrophilum 10094, 72 h post-incubation at 15 °C, OD600, n = 3

SMILES	toxicity (in words) ([1]; 24 h)	toxicity (in words) [2]	toxicity (in words) ([3]; 24 h)	MBC [4, 8]	IC50 (cellular) [1]	IC50 (cellular) [2]	IC50 (cellular) [3]	IC50 (bacterial) [4, 9]	MIC [4]	Amount Cu in MBC [4]	Amount Cu in MIC [4]	Amount Total in IC50 [4]	Amount Total in MBC [4]	Amount Total in MIC [4]	other results
O=c1ccc2ccccc2o1 [Coumarin, 1-benzopyran-2-one]	toxicity was not observed	toxicity was not observed	toxicity was not observed	>512 µg/mL											IC50 ([1]; Oncorhynchus mykiss, Epithelial cell, 24 h, read-out: IC50 (cellular)): > 512 µg/mL; IC50 ([2]; CHSE-214, 24 h, read-out: IC50 (cellular)): > 512 µg/mL; IC50 ([3]; 24 h, read-out: IC50 (cellular)): > 512 µg/mL; MBC ([4]; Flavobacterium psychrophilum, 10094, F. psychrophilum 10094, colony count diminished to 99.9%, read-out: MBC): < 512 µg/mL; IC50 ([4]; Flavobacterium psychrophilum, F. psychrophilum 10094, 72 h post-incubation at 15 °C, OD600, n = 3, read-out: IC50 (bacterial)): 160 ± 25.5 µg/mL (≈ 1.09 mM); MIC ([4]; Flavobacterium psychrophilum, read-out: MIC): 512 µg/mL (≈ 3.5 mM)
CC#N.CC#N.CC#N.CC#N.[Cu+].[O-][Cl+3]([O-])([O-])[O-] [[Cu(CH3CN)4]ClO4]	concentration-dependent toxicity was observed	concentration-dependent toxicity was observed	concentration-dependent toxicity was observed	64 µg/mL	233.9 ± 19.5 ^a µg/mL	59.4 ± 4.1 ^a µg/mL	159 ± 44.6 ^a µg/mL	10.4 ± 0.7 ^b µg/mL	64 µg/mL	12.5 µg/mL	12.5 µg/mL	10.4 µg/mL	64 µg/mL	64 µg/mL	
O=c1ccc2cc(N=Cc3ccc4ccccc4n3)ccc2o1.O=c1ccc2cc(N=Cc3ccc4ccccc4n3)ccc2o1.[Cu+].[O-][Cl+3]([O-])([O-])[O-] [[Cu(NN1)2]ClO4]	concentration-dependent toxicity was observed	concentration-dependent toxicity was observed	concentration-dependent toxicity was observed	32 µg/mL	53.0 ± 3.1 ^b µg/mL	29.1 ± 1.4 ^b µg/mL	30.8 ± 1.3 ^b µg/mL	16.1 ± 0.9 ^c µg/mL	32 µg/mL	2.7 µg/mL	2.7 µg/mL	16.1 µg/mL	32 µg/mL	32 µg/mL	stability in solution (changes in UV-Vis spectral bands) [5]: No significant changes in the spectral bands; E1/2 Cu(II)/Cu(I) couple [6]: 0.426 V
[Cu+].[O-][Cl+3]([O-])([O-])[O-].c1ccc2nc(-c3ccc4ccccc4n3)ccc2c1.c1ccc2nc(-c3ccc4ccccc4n3)ccc2c1 [[Cu(biq)2]ClO4]															E1/2 [7]: 0.96 V
